# Measurements taken from patent publication US4649136A, “Cephem compounds” (Fujisawa Pharmaceutical Co., Ltd., priority 1981, dated 1987).
# Tests used:
# [1] = Urinary excretion; assay type: in vivo; settings: rat; rats; oral administration of 100 mg/kg; urine 0 to 6 and 6 to 24 hours; bioassay; read-out: Urinary recovery in 24 hours (%)
# Description: Urine of rats was collected with a urine collector at 0 to 6, and 6 to 24 hours after oral administration of 100 mg/kg of the test antibiotic. The antibiotic levels in the urine samples were bioassayed with the standard solution prepared with M/15 phosphate buffer (pH 7.0) and the urinary recovery in 24 hours was calculated.
# [2] = in vivo; settings: rat, po, 100 mg/kg
# Description: Rats anesthetized with pentobarbital were fixed in supine position, and a polyethylene cannula was inserted into the bile duct. Bile samples were collected at 0 to 3, 3 to 6, and 6 to 24 hours after oral administration of 100 mg/kg of the test antibiotic. The antibiotic levels in the bile samples were bioassayed with the standard solution prepared with M/15 phosphate buffer (pH 7.0) and the biliary recovery in 24 hours were calculated.
# [3] = test system: Klebsiella pneumoniae 7; test: In vitro antibacterial activity, two-fold agar-plate dilution method (MIC); assay type: cell-based; settings: HI-agar, 10^8 viable cells per ml, 37° C., 20 hours
# Description: (§1) In vitro antibacterial activity was determined by the two-fold agar-plate dilution method as described below. One loopful of an overnight culture of each test strain in Trypticase-soy broth (10^8 viable cells per ml) was streaked on heart infusion agar (HI-agar) containing graded concentrations of representative test compound, and the minimal inhibitory concentration (MIC) was expressed in terms of μg/ml after incubation at 37° C. for 20 hours.
# [4] = test system: Proteus mirabilis 18; test: as above; assay type: cell-based; settings: HI-agar, 10^8 viable cells per ml, 37° C., 20 hours
# Description: as §1
smiles,measurement,setting,value
"O=C(O)CO/N=C(\C(=O)NC1C(=O)N2C(C(=O)O)=CCSC12)c1cscn1 (stereo not drawn) [Compound .circle.A, 7-[2-Carboxymethoxyimino-2-(4-thiazolyl)acetamido]-3-cephem-4-carboxylic acid (syn isomer)]",dose excreted at 24 h,[1],43.5%
same,dose excreted at 24 h,[2],7.9%
same,MIC,[3],0.05 µg/mL
same,MIC,[4],0.05 µg/mL
